# In patent US20210353593A1 (Chinook Therapeutics, Inc., priority 2019, published 2021):
# Tested on: hallmark gene sets in kidney tissue of g-ddY mice
# Test: Gene Set Enrichment Analysis (GSEA) of hallmark gene sets, g-ddY mouse kidney RNA-seq
# Type: in vivo
smiles,measurement,setting,value
"CCCCN(CCCC)C(=O)CN1C[C@H](c2ccc3c(c2)OCO3)[C@@H](C(=O)O)[C@@H]1c1ccc(OC)cc1 [Atrasentan, (2R,3R,4S)-4-(1,3-benzodioxol-5-yl)-1-[2-(dibutylamino)-2-oxoethyl]-2-(4-methoxyphenyl)pyrrolidine-3-carboxylic acid]",HALLMARK_INTERFERON_GAMMA_RESPONSE NES,20 mg/kg/day vs. control,−2.88
same,HALLMARK_KRAS_SIGNALING_DN NES,20 mg/kg/day vs. control,1.32
same,HALLMARK_KRAS_SIGNALING_UP NES,20 mg/kg/day vs. control,−2.65
same,HALLMARK_M ITOTIC_SPINDLE NES,20 mg/kg/day vs. control,−1.79
same,HALLMARK_MTORC1_SIGNALING NES,20 mg/kg/day vs. control,1.23
same,HALLMARK_MYC_TARGETS_V1 NES,20 mg/kg/day vs. control,−0.81
same,HALLMARK_MYC_TARGETS_V2 NES,20 mg/kg/day vs. control,0.76
same,HALLMARK_MYOGENESIS NES,20 mg/kg/day vs. control,−1.60
same,HALLMARK_NOTCH_SIGNALING NES,20 mg/kg/day vs. control,0.69
same,HALLMARK_OXIDATIVE_PHOSPHORYLATION NES,20 mg/kg/day vs. control,3.38
same,HALLMARK_P53_PATHWAY NES,20 mg/kg/day vs. control,−1.3
same,HALLMARK_PANCREAS_BETA_CELLS NES,20 mg/kg/day vs. control,0.98
same,HALLMARK_PEROXISOME NES,20 mg/kg/day vs. control,1.88
same,HALLMARK_PI3K_AKT_MTOR SIGNALING NES,20 mg/kg/day vs. control,−1.24
same,HALLMARK_PROTEIN_SECRETION NES,20 mg/kg/day vs. control,1.08
same,HALLMARK_REACTIVE_OXYGEN_SPECIES_PATHWAY NES,20 mg/kg/day vs. control,1.61
same,HALLMARK_SPERMATOGENESIS NES,20 mg/kg/day vs. control,1.17
same,HALLMARK_TGF_BETA_SIGNALING NES,20 mg/kg/day vs. control,−1.96
same,HALLMARK_TNFA_SIGNALING_VIA_NFKB NES,20 mg/kg/day vs. control,−3.06
same,HALLMARK_UNFOLDED_PROTEIN_RESPONSE NES,20 mg/kg/day vs. control,−0.64
same,HALLMARK_UV_RESPONSE_DN NES,20 mg/kg/day vs. control,−2.36
same,HALLMARK_UV_RESPONSE_UP NES,20 mg/kg/day vs. control,1.15
same,HALLMARK_WNT_BETA_CATENIN_SIGNALING NES,20 mg/kg/day vs. control,−1.57
same,HALLMARK_XENOBIOTIC_METABOLISM NES,20 mg/kg/day vs. control,2.16
same,cell proliferation associated signaling (mitotic spindle and G2M checkpoint),30 mg/kg/day,reduced
same,inflammatory response signaling,30 mg/kg/day,reduced
same,HALLMARK_ADIPOGENESIS NES,30 mg/kg/day vs. control,2.64
same,HALLMARK_ALLOGRAFT_REJECTION NES,30 mg/kg/day vs. control,−2.12
same,HALLMARK_ANDROGEN_RESPONSE NES,30 mg/kg/day vs. control,0.92
same,HALLMARK_ANGIOGENESIS NES,30 mg/kg/day vs. control,−1.86
same,HALLMARK_APICAL_JUNCTION NES,30 mg/kg/day vs. control,−2.00
same,HALLMARK_APICAL_SURFACE NES,30 mg/kg/day vs. control,−1.65
same,HALLMARK_APOPTOSIS NES,30 mg/kg/day vs. control,−1.52
same,HALLMARK_BILE_ACID_METABOLISM NES,30 mg/kg/day vs. control,2.40
same,HALLMARK_CHOLESTEROL_HOMEOSTASIS NES,30 mg/kg/day vs. control,1.14
same,HALLMARK_COAGULATION NES,30 mg/kg/day vs. control,−1.56
same,HALLMARK_COMPLEMENT NES,30 mg/kg/day vs. control,−1.56
same,HALLMARK_DNA_REPAIR NES,30 mg/kg/day vs. control,1.52
same,HALLMARK_E2F_TARGETS NES,30 mg/kg/day vs. control,−1.46
same,HALLMARK_EPITHELIAL_MESENCHYMAL_TRANSITION NES,30 mg/kg/day vs. control,−2.60
same,HALLMARK_ESTROGEN_RESPONSE_EARLY NES,30 mg/kg/day vs. control,−1.22
same,HALLMARK_ESTROGEN_RESPONSE_LATE NES,30 mg/kg/day vs. control,1.16
same,HALLMARK_FATTY_ACID_METABOLISM NES,30 mg/kg/day vs. control,2.90
same,HALLMARK_G2M_CHECKPOINT NES,30 mg/kg/day vs. control,−1.92
same,HALLMARK_GLYCOLYSIS NES,30 mg/kg/day vs. control,1.96
same,HALLMARK_HEDGEHOG_SIGNALING NES,30 mg/kg/day vs. control,−1.94
same,HALLMARK_HEME_METABOLISM NES,30 mg/kg/day vs. control,1.99
same,HALLMARK_HYPOXIA NES,30 mg/kg/day vs. control,−1.18
same,HALLMARK_IL2_STAT5_SIGNALING NES,30 mg/kg/day vs. control,−1.56
same,HALLMARK_IL6_JAK_STAT3_SIGNALING NES,30 mg/kg/day vs. control,−2.33
same,HALLMARK_INFLAMMATORY_RESPONSE NES,30 mg/kg/day vs. control,−2.40
same,HALLMARK_INTERFERON_ALPHA_RESPONSE NES,30 mg/kg/day vs. control,−1.80
same,HALLMARK_INTERFERON_GAMMA_RESPONSE NES,30 mg/kg/day vs. control,−2.26
same,HALLMARK_KRAS_SIGNALING_DN NES,30 mg/kg/day vs. control,−1.12
same,HALLMARK_KRAS_SIGNALING_UP NES,30 mg/kg/day vs. control,−2.31
same,HALLMARK_M ITOTIC_SPINDLE NES,30 mg/kg/day vs. control,−2.02
same,HALLMARK_MTORC1_SIGNALING NES,30 mg/kg/day vs. control,1.81
same,HALLMARK_MYC_TARGETS_V1 NES,30 mg/kg/day vs. control,1.26
same,HALLMARK_MYC_TARGETS_V2 NES,30 mg/kg/day vs. control,0.92
same,HALLMARK_MYOGENESIS NES,30 mg/kg/day vs. control,−1.30
same,HALLMARK_NOTCH_SIGNALING NES,30 mg/kg/day vs. control,−1.15
same,HALLMARK_OXIDATIVE_PHOSPHORYLATION NES,30 mg/kg/day vs. control,3.69
same,HALLMARK_P53_PATHWAY NES,30 mg/kg/day vs. control,1.10
same,HALLMARK_PANCREAS_BETA_CELLS NES,30 mg/kg/day vs. control,1.07
same,HALLMARK_PEROXISOME NES,30 mg/kg/day vs. control,2.39
same,HALLMARK_PI3K_AKT_MTOR SIGNALING NES,30 mg/kg/day vs. control,0.83
same,HALLMARK_PROTEIN_SECRETION NES,30 mg/kg/day vs. control,1.73
same,HALLMARK_REACTIVE_OXYGEN_SPECIES_PATHWAY NES,30 mg/kg/day vs. control,1.98
same,HALLMARK_SPERMATOGENESIS NES,30 mg/kg/day vs. control,1.21
same,HALLMARK_TGF_BETA_SIGNALING NES,30 mg/kg/day vs. control,−1.55
same,HALLMARK_TNFA_SIGNALING_VIA_NFKB NES,30 mg/kg/day vs. control,−2.63
same,HALLMARK_UNFOLDED_PROTEIN_RESPONSE NES,30 mg/kg/day vs. control,0.78
same,HALLMARK_UV_RESPONSE_DN NES,30 mg/kg/day vs. control,−2.39
same,HALLMARK_UV_RESPONSE_UP NES,30 mg/kg/day vs. control,1.63
same,HALLMARK_WNT_BETA_CATENIN_SIGNALING NES,30 mg/kg/day vs. control,−1.63
same,HALLMARK_XENOBIOTIC_METABOLISM NES,30 mg/kg/day vs. control,2.38
